Data from patent US20120219623A1, “PHARMACEUTICAL COMPOSITIONS COMPRISING BI-1356 AND METFORMIN” (BOEHRINGER INGELHEIM INTERNATIONAL GMBH, priority 2009, published 2012).

Experiments:
[1] = test system: inadequately controlled, metformin-treated type 2 diabetic patients; assay: 12-week randomized, double-blind study of BI 1356 add-on to metformin vs placebo or open label glimepiride; conditions: 12 weeks
[2] = test system: type 2 diabetes mellitus patients with insufficient glycemic control on metformin; conditions: human, in vivo, 24 weeks
[3] = therapeutic oral dose levels
[4] = test system: type 2 diabetes patients with insufficient glycemic control on metformin plus sulfonylurea; assay: 24-wk placebo-controlled study of linagliptin add-on to metformin plus sulfonylurea

drug-related hypoglycaemia [1]: no case of hypoglycaemia
hypoglycemia, proportion of patients [2]: 0.6%
excreted via the kidney [3]: < 7 % of the administered oral dose
SMILES: CC#CCn1c(N2CCC[C@@H](N)C2)nc2c1c(=O)n(Cc1nc(C)c3ccccc3n1)c(=O)n2C [BI 1356]
proportion of patients reporting at least one adverse event (AE) [2]: 52.8%
route of excretion [3]: primarily excreted unchanged via the bile
insulin resistance (HOMA-IR) ([4]; LI vs. PBO, FAS, P<0.05): improve
β-cell function (HOMA-% B) ([4]; LI vs. PBO, FAS, P<0.05): improve
adjusted mean difference between LI and PBO for the change in fasting plasma glucose (FPG) from baseline ([4]; wk 24, full analysis set, add-on to MET plus SU): -13 mg/dL
